Data on 18 compounds can be found in patent US8822699B2, “Heterocyclic compound and use thereof” (Takeda Pharmaceutical Company Limited, priority 2010, dated 2014).

SMILES strings stand for the structures. pIC50: −log10 of the molar value. Read-outs that look alike come from different tables or passages of the source.

The test system of experiment [1] is Aβ42 production in primary nerve cells. Put plainly: Measurement of amyloid β production inhibition rate using primary nerve cell (Aβ42 sandwich ELISA). Conditions: primary nerve cells from cerebral cortex of SD rat fetus, cultured 3 days with compound, culture supernatant, sandwich ELISA for Aβ42, read-out: Aβ42 production inhibitory activity IC50. Format: cell-based. Here is the method:
Measurement of Amyloid β Production Inhibition Rate Using Primary Nerve Cell
The primary nerve cells were collected from the cerebral cortex of rat fetus (CLEA Japan, Inc.: SD rat, fetal life 17 days of age), and suspended in a neurobasal medium containing B27 supplement, L-glutamine, penicillin-streptomycin (manufactured by Invitrogen) at 500,000 cells/mL. Then, the suspension was seeded in poly L-lysine-coated 96 well plate (manufactured by SUMITOMO BAKELITE) by 100 μL, and cultured at 37° C., 5% CO2 for 7 days. The medium was completely removed, and a new neurobasal medium was added at 75 μL/well. Thereto was added (75 μL/well) a neurobasal medium supplemented with a 2-fold measurement concentration of an evaluation target compound, and the mixture was cultured for 3 days. The culture supernatant was collected from each well, diluted as appropriate, applied to sandwich ELISA between BNT77 antibody-BA27 antibody (for Aβ40) and sandwich ELISA between BNT77 antibody-3005 antibody (for Aβ42), and the amounts of Aβ40 and Aβ42 were measured.
The amyloid β production inhibition rate (%) of the compound was calculated by the following formula. (1−(amyloid β production amount with addition of compound)/(amyloid β production amount without addition of compound))×100
The amyloid β production 50% inhibitory rate (IC50 value) was calculated using the statistical analysis software (SAS Preclinical Package) as the concentration of the compound showing 50% inhibition when the amyloid β production amount without addition of the compound is 100%. In addition, a new neurobasal medium was added (75 μL/well) to the cells after collection of the culture supernatant, and the cells were left standing for about 30 min to reach room temperature. Cell-Titer Glo Luminescent Cell Viability Assay (manufactured by Promega) was added at 75 μL/well, and the plate was shaken for 2 min and reacted for about 10 min.

The subject of experiment [2] is Aβ42 (soluble Aβ in hippocampi). Put plainly: Aβ42 in hippocampi of mice after oral administration (Aβ ELISA). Format: in vivo. The settings on record: C57BL/6J mice, 10 mg/kg orally, hippocampi isolated 3 hours after administration, soluble Aβ42 by two-site sandwich ELISA; for inhibition at 10 mg/kg: Mus musculus, po, 3 h, read-out: Aβ42 production inhibitory activity (% inhibition); for Aβ42 production inhibitory activity (% inhibition): 10 mg/kg. On the procedure: C57BL/6J mice (7-10 weeks old) were purchased from CLEA Japan Inc. Mice were housed in groups and kept on a 12 h-light; 12 h-dark schedule. All mice were given ad libitum access to food and water.
Each test compound was reconstituted in solubilization buffer ([DMSO (Wako)]: [10% Cremophor (Nakarai)+30% polyethylene glycol 400 (Wako)+60% 2 mol/L Citrate buffer (Wako)]=1:9) and orally administrated at 10 mg/kg.
Hippocampi was isolated from animals, 3 hours after test compounds were orally administrated. Hippocampi were homogenized in ice-cold Tris-extraction buffer (50 mmol/L Tris-HCl, pH 7.2, 200 mmol/L sodium chloride, 2% protease-free bovine serum albumin, and 0.01% sodium merthiolate) containing protease inhibitor cocktails (Roche, Switzerland). After centrifugation at 15,000 rpm for 15 minutes, the supernatants were subjected to two-site sandwich ELISA to measure amount of soluble Aβ. Aβ42 was quantitated by two-site sandwich ELISA using BNT77, which recognizes Aβ11-28, as a capture antibody and BC05-HRP as a detector antibody, respectively.

As for `COc1nc(-c2nnc3n2CCCC3(Oc2ccc(Cl)c(F)c2)C(C)(C)O)ccc1-n1cnc(C)c1` (stereo not shown) [Example 1, 2-{8-(4-chloro-3-fluorophenoxy)-3-[6-methoxy-5-(4-methyl-1H-imidazol-1-yl)pyridin-2-yl]-5,6,7,8-tetrahydro[1,2,4]triazolo[4,3-a]pyridin-8-yl}propan-2-ol], the pIC50 in experiment [1] (Rattus norvegicus, 72 h) was 7.57. For the same compound, the inhibition at 10 mg/kg in experiment [2] was found to be 40%.

Regarding `COc1nc(-c2nnc3n2CCCC3(Oc2ccc(F)c(C(F)(F)F)c2)C(C)(C)O)ccc1-n1cnc(C)c1` (stereo not shown) [Example 2, 2-{8-[4-fluoro-3-(trifluoromethyl)phenoxy]-3-[6-methoxy-5-(4-methyl-1H-imidazol-1-yl)pyridin-2-yl]-5,6,7,8-tetrahydro[1,2,4]triazolo[4,3-a]pyridin-8-yl}propan-2-ol], the pIC50 in experiment [1] was 7.72. In addition, in experiment [2], the “Aβ42 production inhibitory activity (% inhibition)” value was 48%.

Regarding `COc1cc(-c2nnc3n2CCCC3(CC2CC2)c2ccc(F)c(F)c2)ccc1-c1cnc(C)o1` (stereo not shown) [Example 21, optically active 8-(cyclopropylmethyl)-8-(3,4-difluorophenyl)-3-[3-methoxy-4-(2-methyl-1,3-oxazol-5-yl)phenyl]-5,6,7,8-tetrahydro[1,2,4]triazolo[4,3-a]pyridine], the pIC50 in experiment [1] was 8.30. In addition, the inhibition at 10 mg/kg in experiment [2] worked out at 39%. For the compound `COc1cc(-c2nnc3n2CCCC3(Oc2ccc(F)c(F)c2)C(C)(C)O)ccc1-c1cnc(C)o1` (stereo not shown) [Example 92, 2-{8-(3,4-difluorophenoxy)-3-[3-methoxy-4-(2-methyl-1,3-oxazol-5-yl)phenyl]-5,6,7,8-tetrahydro[1,2,4]triazolo[4,3-a]pyridin-8-yl}propan-2-ol], the pIC50 in experiment [1] (Rattus norvegicus, 72 h) was 7.23. Further, in experiment [2], the “Aβ42 production inhibitory activity (% inhibition)” value is 32%. In the case of `COc1cc(-c2nnc3n2CCCC3(Oc2cc(F)c(F)c(F)c2)C(C)(C)O)ccc1-c1cnc(C)o1` (stereo not shown) [Example 99, 2-{3-[3-methoxy-4-(2-methyl-1,3-oxazol-5-yl)phenyl]-8-(3,4,5-trifluorophenoxy)-5,6,7,8-tetrahydro[1,2,4]triazolo[4,3-a]pyridin-8-yl}propan-2-ol], in experiment [1] (Rattus norvegicus, 72 h), the pIC50 was 7.70. The inhibition at 10 mg/kg in experiment [2] stood at 34%. In the case of `COc1cc(-c2nnc3n2CCCC3(Oc2cccc(C(F)(F)F)c2)C(C)(C)O)ccc1-c1cnc(C)o1` (stereo not shown) [Example 103, 2-{3-[3-methoxy-4-(2-methyl-1,3-oxazol-5-yl)phenyl]-8-[3-(trifluoromethyl)phenoxy]-5,6,7,8-tetrahydro[1,2,4]triazolo[4,3-a]pyridin-8-yl}propan-2-ol], the pIC50 in experiment [1] (Rattus norvegicus, 72 h) is 7.39. The inhibition at 10 mg/kg in experiment [2] came to 42%.

`COc1cc(-c2nnc3n2CCCC3(Oc2ccc(C(F)(F)F)cc2)C(C)(C)O)ccc1-c1cnc(C)o1` (stereo not shown) [Example 104, 2-{3-[3-methoxy-4-(2-methyl-1,3-oxazol-5-yl)phenyl]-8-[4-(trifluoromethyl)phenoxy]-5,6,7,8-tetrahydro[1,2,4]triazolo[4,3-a]pyridin-8-yl}propan-2-ol]: in experiment [1], the pIC50 was 7.39. The “Aβ42 production inhibitory activity (% inhibition)” value in experiment [2] is recorded as 36%. With `COc1cc(-c2nnc3n2CCCC3(Oc2ccc(Cl)c(F)c2)C(C)(C)O)ccc1-c1cnc(C)o1` (stereo not shown) [Example 111, 2-{8-(4-chloro-3-fluorophenoxy)-3-[3-methoxy-4-(2-methyl-1,3-oxazol-5-yl)phenyl]-5,6,7,8-tetrahydro[1,2,4]triazolo[4,3-a]pyridin-8-yl}propan-2-ol], the negative-log IC50 (pIC50) in experiment [1] was 8.00. Moreover, the inhibition at 10 mg/kg in experiment [2] was 46%. As for `CCC(O)(CC)C1(Oc2ccc(Cl)c(F)c2)CCCn2c(-c3ccc(-c4cnc(C)o4)c(OC)c3)nnc21` (stereo not shown) [Example 120, 3-{8-(4-chloro-3-fluorophenoxy)-3-[3-methoxy-4-(2-methyl-1,3-oxazol-5-yl)phenyl]-5,6,7,8-tetrahydro[1,2,4]triazolo-[4,3-a]pyridin-8-yl}pentan-3-ol], the pIC50 in experiment [1] (Rattus norvegicus, 72 h) is 8.40. Besides, in experiment [2], the inhibition at 10 mg/kg is 21%. On to `COc1cc(-c2nnc3n2CCC[C@]3(Oc2cc(F)c(F)c(F)c2)C(C)(C)O)ccc1-c1cnc(C)o1` [Example 122, 2-{(8R)-3-[3-methoxy-4-(2-methyl-1,3-oxazol-5-yl)phenyl]-8-(3,4,5-trifluorophenoxy)-5,6,7,8-tetrahydro[1,2,4]triazolo[4,3-a]pyridin-8-yl}propan-2-ol], for which the pIC50 in experiment [1] (Rattus norvegicus, 72 h) is 7.72. Moreover, in experiment [2], the inhibition at 10 mg/kg was determined as 54%.

For `COc1cc(-c2nnc3n2CCCC3(Oc2ccc(F)c(F)c2)C(C)(C)O)ccc1-c1cnc(C)o1` (stereo not shown) [Example 124, 2-{8-(3,4-difluorophenoxy)-3-[3-methoxy-4-(2-methyl-1,3-oxazol-5-yl)phenyl]-5,6,7,8-tetrahydro[1,2,4]triazolo[4,3-a]pyridin-8-yl}propan-2-ol], the negative-log IC50 (pIC50) in experiment [1] is 7.17. Besides, the inhibition at 10 mg/kg in experiment [2] came out at 41%. `COc1cc(-c2nnc3n2CCCC3(COc2ccc(Cl)cc2)C(C)(C)O)ccc1-c1cnc(C)o1` (stereo not shown) [Example 127, 2-{8-[(4-chlorophenoxy)methyl]-3-[3-methoxy-4-(2-methyl-1,3-oxazol-5-yl)phenyl]-5,6,7,8-tetrahydro[1,2,4]triazolo[4,3-a]pyridin-8-yl}propan-2-ol]: the pIC50 in experiment [1] (Rattus norvegicus, 72 h) was 7.36. For the same compound, the inhibition at 10 mg/kg in experiment [2] turned out to be 21%. As to `COc1cc(-c2nnc3n2CCCC3(Oc2cccc(C(F)(F)F)c2)C(C)(C)O)ccc1-c1cnc(C)o1` (stereo not shown) [Example 130, 2-{3-[3-methoxy-4-(2-methyl-1,3-oxazol-5-yl)phenyl]-8-[3-(trifluoromethyl)phenoxy]-5,6,7,8-tetrahydro[1,2,4]triazolo[4,3-a]pyridin-8-yl}propan-2-ol], the negative-log IC50 (pIC50) in experiment [1] is 7.62. For the same compound, the “Aβ42 production inhibitory activity (% inhibition)” value in experiment [2] turned out to be 59%. For the compound `COc1cc(-c2nnc3n2CCCC3(Nc2cc(F)c(F)c(F)c2)C(C)(C)O)ccc1-c1cnc(C)o1` (stereo not shown) [Example 181, 2-{3-[3-methoxy-4-(2-methyl-1,3-oxazol-5-yl)phenyl]-8-[(3,4,5-trifluorophenyl)amino]-5,6,7,8-tetrahydro[1,2,4]triazolo[4,3-a]pyridin-8-yl}propan-2-ol], the pIC50 in experiment [1] (Rattus norvegicus, 72 h) is 7.24. With `COc1nc(-c2nnc3n2CCC[C@]3(Oc2cc(F)c(F)c(F)c2)C(C)(C)O)ccc1-n1cnc(C)c1` [Example 187, 2-{(8R)-3-[6-methoxy-5-(4-methyl-1H-imidazol-1-yl)pyridin-2-yl]-8-(3,4,5-trifluorophenoxy)-5,6,7,8-tetrahydro[1,2,4]triazolo[4,3-a]pyridin-8-yl}propan-2-ol 1(+)-mandelate], the negative logarithm of the IC50 (pIC50) in experiment [1] is 7.54.

For the compound `COc1cc(-c2nnn3c2CCCC3(Oc2cc(F)c(F)c(F)c2)C(C)(C)O)ccc1-c1cnc(C)o1` (stereo not shown) [Example 191, optically active 2-{3-[3-methoxy-4-(2-methyl-1,3-oxazol-5-yl)phenyl]-7-(3,4,5-trifluorophenoxy)-4,5,6,7-tetrahydro[1,2,3]triazolo[1,5-a]pyridin-7-yl}propan-2-ol], the pIC50 in experiment [1] was 8.10. On the same count and under the same terms, with `COc1nc(-c2nnc3n2CCC[C@]3(Oc2cc(F)c(F)c(F)c2)C(C)(C)O)ccc1-n1cnc(C)c1` [Example 194, 2-{(8R)-3-[6-methoxy-5-(4-methyl-1H-imidazol-1-yl)pyridin-2-yl]-8-(3,4,5-trifluorophenoxy)-5,6,7,8-tetrahydro[1,2,4]triazolo[4,3-a]pyridin-8-yl}propan-2-ol 0.67 phosphate] the figure was 7.48; with `COc1nc(-c2nnc3n2CCC[C@]3(Oc2cc(F)c(F)c(F)c2)C(C)(C)O)ccc1-n1cnc(C)c1` [Example 197, 2-{(8R)-3-[6-methoxy-5-(4-methyl-1H-imidazol-1-yl)pyridin-2-yl]-8-(3,4,5-trifluorophenoxy)-5,6,7,8-tetrahydro[1,2,4]triazolo[4,3-a]pyridin-8-yl}propan-2-ol monogentisate], 7.52.
